Measured values: PubChem BioAssay (NCI)
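How tested: cells in 96-well plates exposed to compound for 48 hours at five concentrations. Here, GI50 denotes the concentration required for 50% inhibition of growth. Definition used: TGI = concentration required for complete inhibition of growth.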

Columns and labels:
Assay in all cases: DTP human tumour cell line panel, 48 h
[1] = system: MCF7 breast
[2] = system: SK-OV-3 ovarian
[3] = system: NCI-H522 lung
[4] = system: RPMI-8226 leukemia
[5] = system: MALME-3M melanoma
[6] = system: MDA-MB-435
[7] = system: RXF 393 renal
[8] = system: SF-539 CNS
[9] = system: SF-268 CNS
[10] = system: CAKI-1 renal

Row | SMILES | TGI [1] [µM] | TGI [2] [µM] | TGI [3] [µM] | TGI [4] [µM] | TGI [5] [µM] | TGI [6] [µM] | TGI [7] [µM] | TGI [8] [µM] | TGI [9] [µM] | TGI [10] [µM] | GI50 [1] [µM] | GI50 [2] [µM] | GI50 [3] [µM] | GI50 [4] [µM] | GI50 [5] [µM] | GI50 [6] [µM] | GI50 [7] [µM] | GI50 [8] [µM] | GI50 [9] [µM] | GI50 [10] [µM]
1 | O=C1C=C(Br)c2c(-c3ccccc3)oc3cccc1c23 | > 100 | > 100 | > 100 | > 79 | > 100 | > 100 | > 83.9 | > 94.2 | > 81.6 | > 100 | – | – | – | – | – | – | – | – | – | –
2 | O=c1[nH]c2ccccc2nc1-c1c[nH]c2ccccc12 | > 100 | > 100 | > 100 | > 100 | > 100 | > 100 | > 100 | > 100 | > 100 | > 100 | 93.4 | > 100 | > 100 | > 100 | 39.8 | > 100 | 7.41 | > 100 | > 100 | 2.49
3 | CN(C)CCCN1c2ccccc2CCc2ccc(Cl)cc21 | 3.66 | 15.4 | 18.1 | 8.26 | 3.99 | 6.91 | 7.66 | 17.7 | 18.2 | 16.8 | 1.76 | 4.49 | 5.15 | 2.62 | 2.03 | 2.35 | 2 | 5.59 | 4.92 | 3.88
4 | O=C(C1CCCCC1)[C@@H]1[C@]2(C(=O)NC3CCCCC32)[C@@H]2CCCN2[C@@]12C(=O)NC1CCC(Cl)CC12 (some centres undefined) | 185 | 284 | 281 | 103 | 330 | 245 | 301 | 255 | 288 | 225 | 41.8 | 145 | 120 | 32.6 | 132 | 112 | 113 | 121 | 119 | 80.8
5 | O=C(c1ccccc1)C(CN1CCOCC1)c1ccccc1 (centres undefined) | 2.66 | 17.9 | 0.995 | 4.74 | 4.03 | 3.36 | 3.36 | 4.47 | 3.47 | 1.95 | 1.25 | 5.18 | 0.255 | 0.793 | 1.79 | 1.35 | 1.8 | 2.11 | 1.65 | 0.565
6 | Cc1cc(N/N=C/c2nc(-c3ccc(Br)cc3)oc2C)c2cc(Cl)ccc2n1 | > 100 | > 100 | > 100 | > 100 | > 100 | > 100 | > 100 | > 100 | > 100 | > 100 | > 100 | > 100 | > 100 | > 100 | > 100 | > 100 | > 100 | > 100 | > 100 | > 100
7 | COc1cc2c(cc1OCCCCOc1cc3c(cc1OC)C(=O)N1CCC[C@H]1CN3)N=C[C@@H]1CCCN1C2=O | 1.76 | > 100 | 0.386 | 4.84 | 4.1 | 10.4 | 1.45 | 2.89 | 4.95 | – | 0.346 | 7.06 | 0.072 | 0.575 | 1.47 | 0.464 | 0.29 | 0.419 | 0.344 | 0.344
8 | O=C(/C(=C/c1ccccc1)CN1CCCCC1)c1ccccc1 | 2.85 | 7.69 | 0.884 | 5.13 | 3.58 | 5.21 | 1.21 | 10.1 | 15 | 2.84 | 0.464 | 2.75 | 0.365 | 0.8 | 1.16 | 0.57 | 0.481 | 2.8 | 2.63 | 0.337
9 | N/C(=N\N=C\c1ccc(-c2ccccc2)cc1)N[N+](=O)[O-] | > 100 | > 100 | > 100 | > 100 | > 100 | 0.599 | 80.2 | > 100 | > 100 | > 100 | 1.47 | 3.87 | 2.13 | 4.04 | > 100 | 0.226 | 2.78 | 2.12 | 7.07 | 4.17
10 | COc1ccc(-c2n[nH]nc2-c2cc(OC)c3c(c2OC)OCO3)cc1 | 35.2 | 9.3 | 3.67 | 37.7 | > 100 | 0.761 | 5.37 | 5.4 | 54.3 | > 60.1 | 0.48 | 1.27 | 0.486 | 0.751 | 1.34 | 0.227 | 1.1 | 1.32 | 2.98 | 0.839
11 | CC(CN1CCN(CCOCCO)CC1)CN1c2ccccc2Sc2ccc(Cl)cc21 (centres undefined) | 6.61 | 21.8 | 3.36 | 5.54 | 3.45 | 4.96 | 4.85 | 6.94 | 18.4 | 17.1 | 2.64 | 8.87 | 1.71 | 2.19 | 1.75 | 2.06 | 1.58 | 2.52 | 4.87 | 4.37
12 | Cc1ccc(C2=NOC3=c4ccccc4=CSC3=C2c2ccc([N+](=O)[O-])cc2)cc1 | 88.8 | 49 | 68.5 | > 100 | 89.5 | > 100 | 64.6 | 25.4 | 46.7 | 46.8 | 11.1 | 6.91 | 12.5 | 44.4 | 17.7 | 57.9 | 18.7 | 7.18 | 18.1 | 16.8
